Molecules are shown by their SMILES.

The record followed here is US20170202792A1, “METHOD FOR TREATING TAU-ASSOCIATED DISEASES” (NATIONAL TAIWAN NORMAL UNIVERSITY, priority 2016, published 2017).

Data set [1] has as its system transgenic flies overexpressing tau protein driven by Eq-gal4 (Eq>tau). The experiment in a line: In vivo tau toxicity, notal bristle number of flies. Set-up: species or system Drosophila. The settings on record: 25 μM and 50 μM of compound (I) vs DMSO. The protocol:
10 Eq-ga14 flies were treated with DMSO as the control group, and transgenic flies overexpressing tau protein driven by Eq-ga14 (Eq>tau) were treated with DMSO, 25 μM of compound (I), and 50 μM of compound (I) respectively in each group of 10 flies. The number of notal bristle of the flies was then calculated.

Data set [2] can be described thus: Body weight monitoring in STZ 3×Tg-AD mice. In kind it is in vivo, mouse. The settings on record: 0.25 mg/kg i.p. daily 28 days; NBG vs HBG groups treated with compound (I). The procedure: (§1) Hyperglycemia was induced by streptozotocin (STZ) to accelerated Alzheimer's disease progression of 6-month-old male transgenic 3×Tg−AD mice. Half of the 3×Tg−AD mice (n=30) received STZ (100 mg/kg) intraperitoneal injection at days 1, 2, 8, and 9 respectively as the high blood glucose group (HBG); another half of the 3×Tg-AD mice (n=30) received sodium citrate (0.1 M) at the same time points as the normal blood glucose group (NBG). Then, HBG and NBG were divided into two groups respectively to give four groups such as NBG-compound (I), HBG-compound (I), NBG-DMSO, and HBG-DMSO with n=15 in each group; wherein 0.25 mg/kg of compound (I) (in 30 μL) were intraperitoneal injected into those mice of NBG-compound (I) and HBG-compound (I) groups daily since day 14 for 28 days, and 30 μL of DMSO solvent were intraperitoneal injected into those mice of NBG-DMSO and HBG-DMSO groups daily since day 14 for 28 days. Both mouse body weight (BW) and blood glucose (BG) were monitored every week.

In the next data set the test system is HSPB1. The experiment in a line: Western blot of HSPB1 expression in tauRD-DsRed SH-SY5Y cells. The format is cell-based, human. The following applies: untreated = 100%. The source says:
(§2) Furthermore, chaperones are molecules essential for proper protein folding which play a key role in protein-folding disorders in central nervous system. […] Moreover, the upregulation of endoplasmic reticulum chaperones such as glucose-regulated protein, 78 kDa (GRP78) is a cellular protective response against AD (Hoshino et al., 2007. Endoplasmic reticulum chaperones inhibit the production of amyloid-(3 peptides. Biochem. J. 402, 581-589). Accordingly, the GRP78 and HSPB1 expression in tauRD-DsRed SH-SYSY cells treated by Congo red and compound (I) with or without doxycycline were analyzed.
(§3) Western blotting analysis was applied for examining the expressions of HSPB1 and GRP78, the method was as follows: total proteins were extracted using RIPA buffer, which comprised 50 mM Tris-HCl, 150 mM NaCl, 1 mM EDTA, 1 mM EGTA, 0.1% SDS, 0.5% sodium deoxycholate, 1% Triton X-100, and a protease inhibitor cocktail (Calbiochem). […] Next, immunoreactive bands were detected using horseradish peroxidase-conjugated goat anti-mouse, goat anti-rabbit, or donkey anti-goat IgG antibodies (1:5000; GeneTex) and chemiluminescent substrate (Millipore).
For orientation: Immunoblotting shows a protein as a band on a membrane.

The test system of the next data set is IL-6 and TNF-α. The experiment in a line: Content analysis of IL-6 and TNF-α in serum (ELISA). In kind it is in vivo, mouse. The following applies: both normal and high blood glucose groups; 0.25 mg/kg i.p. daily. The protocol: Hyperglycemia was induced by streptozotocin (STZ) to accelerated Alzheimer's disease progression of 6-month-old male transgenic 3×Tg−AD mice. Half of the 3×Tg−AD mice (n=30) received STZ (100 mg/kg) intraperitoneal injection at days 1, 2, 8, and 9 respectively as the high blood glucose group (HBG); another half of the 3×Tg-AD mice (n=30) received sodium citrate (0.1 M) at the same time points as the normal blood glucose group (NBG). […] Both mouse body weight (BW) and blood glucose (BG) were monitored every week.
Additionally, the peripheral inflammatory cytokine in four groups of mice were evaluated. The collected blood was centrifuged (2000×g) for 20 minutes at 4° C., and the supernatant was analyzed using mouse TNF-α ELISA kit and IL-6 ELISA kit (R&D system). OD450 nm absorbance was detected by ELISA reader, and the concentration of IL-6 and of TNF-α were obtained by interpolating the standard curve and shown in FIG. 11, wherein *p<0.05. […]
(In general: ELISA stands for enzyme-linked immunosorbent assay.)

A further data set has as its system GRP78. The experiment in a line: Western blot of GRP78 expression in tauRD-DsRed SH-SY5Y cells. In kind it is cell-based, human. The settings on record: untreated = 100%.
Description: as §2, §3

Data set [3] deals with GFAP (astrocytes) and Iba1 (microglia). The experiment in a line: Immunohistochemical staining of GFAP and Iba1 (neuro-inflammation in hippocampus). In kind it is in vivo, mouse. The following applies: 0.25 mg/kg i.p. daily 28 days. The protocol:
as §1
After the brain tissue of the mice were fixed and dehydrated, the tissue was cryosectioned (30 μm). The cryosections were then washed with phosphate buffered saline (PBS) three times. After the optimal cutting temperature compound (OCT) was removed, 3% H2O2was used to remove the endogenous peroxidase, and the cryosection was blocked by the blocking solution for 1 hour to reduce non-specific antigen reactions. The primary antibodies GFAP (astrocytes) and Iba1 (microglia) were added and reacted for 12 hours, the secondary antibody (1:200 dilution in blocking solution, Vecter) was added and reacted for 1 hour, and then, the avidin-biotin complex was added and reacted for 1 hour. Finally, DAB-kit was used for coloring. All the stained sections were attached to the slides, dried, dehydrated, and mounted for imaging and quantification (Image Pro Plus) to evaluate the neuro-inflammation in mouse hippocampus. The quantification results were shown in Table 2, wherein ↑↑↑, ↓↓↓:p<0.001.

Regarding `CCCCC/C=C\C/C=C\C/C=C\C/C=C\CCCC(=O)Nc1ccc(O)cc1` [compound (I), (5Z, 8Z, 11Z,14Z)-N-(4-Hydroxyphenyl)icosa-5 ,8 , 11,14-tetraen amide], in data set [1], the “number of notal bristle” value is reported as “effectively reduced the notal bristle loss”. The “body weight (BW)” value in data set [2] is given as “no significant difference in BW”. For the same compound, in the data set on HSPB1, the “expression of HSPB1 relative to untreated cells” value is on record as 174%. Further, in the data set on IL-6 and TNF-α, the “IL-6 level in serum” value is “down-regulated” and the “TNF-α level in serum” value was “down-regulated”. Moreover, the “expression of GRP78 relative to untreated cells” value in the data set on GRP78 is reported as 189%. Moreover, in data set [3] (HBG 3×Tg-AD mice), the GFAP staining quantification is reported as 15.63 ± 2.05↓↓↓ and the Iba1 staining quantification was 29.43 ± 0.78↓↓↓. Moreover, in data set [3] (NBG 3×Tg-AD mice), the GFAP staining quantification came out at 3.33 ± 1.02 and the Iba1 staining quantification turned out to be 34.25 ± 2.19.
